Results: patent publication US6693100B1, “Pharmaceutical compositions for treating psoriasis” (priority 1999, dated 2004)

Key:
psoriasis [1] = experiment: Clinical trial case reports: Cardioxane intravenous drip infusion in individual psoriasis patients (Examples 1-3); type: in vivo, human
Text: The disease started after mental stress (loss of near person) with a rash on the hairy part of the head. From the very onset of the disease the patient received intensive treatment with vitamins B12, B6, B2, and calcium. They had artificial hyperthermia with pyrogenal injections, methotrexate, various ointments (e.g. salicylic ointment) under a dermatologist's observation at a specialised clinic. In spite of the treatment the psoriatic rash was spreading over the trunk, upper and lower extremities and it was accompanied by a marked general itch. The patient had practically no remissions. Concurrent diseases were grade II hypertension and chronic cholecystopancreatitis.
At the first examination the patient complained about itching all over the body (resulting in insomnia) and pain in the large joints (mainly knees). The skin on the back, buttocks, chest and arms was covered with a erythematous papular and pustular rash with a white coating (desquamation). A similar though less intense rash was seen on the legs. The patient's general status, the haematological and biochemical profiles were within normal.
On the first and the second day of the treatment cycle the patient received the first doses of Cardioxane® (dexrazoxane.HCl) at 500 mg each day by intravenous drip infusion. […] The itch practically disappeared after the next dose of Cardioxane® therapy at 1000 mg on day 16. […] The patient slept well for the first time in a long disease period. The effect was still preserved at the examination on day 29 and day 30 when the patient was given the last two injections of Cardioxane® at 1500 mg each.
This patient had suffered from generalised psoriasis for 25 years. The rash first appeared on the head and the right upper limb to spread over the trunk and upper limbs later. The patient had received therapies similar to the patient described in Example 1. In addition they received UV therapy, peloids, sulfurated hydrogen baths, but without lasting effect. The patient had no concurrent illness except asthenia, sinus arrhythmia and left ventricular hypertrophy. The skin on the back, lumbar region and shoulders was covered with merged erythematous papular, bullar and desquamating lesions. The rash on the lateral chest walls and on the lower limbs was mainly erythematous and less marked. The skin lesions covered about 50% of the body surface.
The patient was given 6 intravenous drip injections with Cardioxane® according to the following schedule:
On day 1 and day 2 each 500 mg Cardioxane®,
on day 15 and day 16 each 1000 mg Cardioxane®,
and on day 29 and day 30 each 1500 mg Cardioxane®.
The psoriatic rash appeared on the hairy part of the head and neck to spread further over the body. The patient received insolation with but a temporary effect. The patient had had 4 hospitalisations to receive therapy with vitamins, calcium, and various ointments.
At the first examination on day 1 the patient presented with continuous erythematous papular psoriatic rash with desquamation on the front abdominal wall (below the submammal fold), the inguioileac, the lumbosacral, the gluteal regions and the lower limbs, severe itch, and scraping tubular breathing (asthmatic bronchitis). Of note was also a marked increase in the eosinophile count.
The patient received 6 intravenous drip injections of Cardioxane® according to the protocol given in Example 2. […] The lower half of the abdomen as well as the upper gluteal quadrants were practically free of rash.

refractory psoriasis [2] = experiment: Clinical study of efficacy of dexrazoxane in patients with refractory psoriasis, Psoriasis Area and Severity Index (Example 4); type: in vivo, human
Method: (§1) The efficacy and tolerability of dexrazoxane in patients with refractory psoriasis was assessed in a clinical study.
(§2) After screening, eligible patients received 500 mg of Cardioxane® by intravenous infusion on each of two consecutive days. They were reviewed 7 and 14 days after the first day of treatment. The patients received the second cycle of treatment, which consisted of either 500 mg Cardioxane® by intravenous infusion, on each of two consecutive days (days 15 and 16, in this case), if a complete response had occurred, or 1000 mg Cardioxane® by intravenous infusion, on each of two consecutive days (days 15 and 16, in this case), if an incomplete response had occurred.
(§3) A third cycle of treatment was given after the same interval (days 29 and 30, in this case).
The primary efficacy parameter was the percentage reduction in skin area and severity affected by psoriasis, as determined by the standardised assessment of the Psoriasis Area and Severity Index (PASI).
Seven patients have been enrolled in the study and all patients have completed a follow-up period of two weeks. At the beginning of the treatment, the PASI-scores ranged between 23.1 and 44.1, with a mean score of 31.9. […] At the end of the third treatment cycle, the PASI-scores ranged between 3.4 and 29.7, with a mean score of 11.4.

[3] = human, in vivo
Method: as §1, §2, §3
This neutropenia disappeared after another week, and the counts were normal from then on. All other patients had normal white blood cell counts. The assessment of toxicity was according to the WHO criteria: grade 0 (non-toxic, a count of more than 4×10E9 leukocytes per liter), grade 1 (mild) to grade 4 (most severe).

[4] = pH of reconstituted and diluted Cardioxane solution for infusion; type: physicochemical
Method: Cardioxane® is available in 36 ml brown glass vials. Each vial contains 500 mg lyophilised active substance, the hydrochloric acid salt of dexrazoxane. For reconstitution the contents of each vial is dissolved in 25 ml sterile water for injection. The contents will dissolve within a few minutes under gentle agitation. The pH of the resulting solution is approx. pH 1.6.
For infusion the solution needs to be further diluted. Preferred are sodium lactate UP (0.16M) or Ringer-Lactate BP for infusion. Both solutions give an infusion fluid with an acceptable pH.

psoriasis [5] = settings: cited from earlier work
refractory psoriasis [6] = experiment: Separate longer study of three patients with refractory psoriasis; type: in vivo, human
Text: This patient, who previously suffered distressing refractory psoriasis, can be treated with conventional emollients. Dexrazoxane therefore has the potential to provide remarkable long term relief from refractory psoriasis and a low level of side effects.

[7] = Example 3 patient, examination on day 30
[8] = at 11 weeks after the start of the therapy
[9] = British Journal of Dermatology (1980) 102, 307
[10] = patients of the clinical trial (general statement)

Compound: CC(CN1CC(=O)NC(=O)C1)N1CC(=O)NC(=O)C1 (stereo not drawn) [Cardioxane]
- arthralgia (psoriasis [1]; Example 1 patient, after 1000 mg dose on day 16): complete disappearance of anthralgia
- adverse events (psoriasis [1]; Example 1 patient, after any of the injections (500, 1000, 1500 mg)): no adverse events
- itch (psoriasis [1]; Example 1 patient, 500 mg i.v. on days 1 and 2): amelioration of itch several hours after the first
- side effects (psoriasis [1]; Example 2 patient, 6 i.v. drip injections 500-1500 mg): no side effects
- erythema (psoriasis [1]; Example 2 patient, examination on day 15 and day 29): mild amelioration of erythema on the back
- skin itch (psoriasis [1]; Example 3 patient, at 2 or 3 days after the first injection): complete disappearance of skin itch
- adverse events (psoriasis [1]; Example 3 patient, examination on day 15): no adverse events
- adverse events (psoriasis [1]; [7]): No adverse events were reported
- complete regression of the rash (psoriasis [1]; [7]): about 80%
- maximum reduction in PASI (refractory psoriasis [2]; [8]): 88%
- mean reduction in PASI (refractory psoriasis [2]; [8]): 65%
- relief of symptoms associated with psoriatic arthritis (refractory psoriasis [2]; compared to treatment with cyclosporine A used previously in the clinic): better and faster relief
- remission (refractory psoriasis [2]; one month after the last injection): most of the patients are still in remission
- PASI score (refractory psoriasis [2]; patient 1/HH, visit v1 (start of treatment)): 23.1
- PASI score (refractory psoriasis [2]; patient 1/HH, visit v4): 11.3
- PASI score (refractory psoriasis [2]; patient 1/HH, visit v7): 7.7
- PASI score (refractory psoriasis [2]; patient 1/HH, visit v9): 6.5
- PASI score (refractory psoriasis [2]; patient 1/HH, visit v10): 6.5
- PASI score (refractory psoriasis [2]; patient 1/HH, visit v11): 5.6
- PASI score (refractory psoriasis [2]; patient 2/MR, visit v1 (start of treatment)): 43.6
- PASI score (refractory psoriasis [2]; patient 2/MR, visit v4): 36.3
- PASI score (refractory psoriasis [2]; patient 2/MR, visit v7): 23.1
- PASI score (refractory psoriasis [2]; patient 2/MR, visit v9): 15.6
- PASI score (refractory psoriasis [2]; patient 2/MR, visit v10): 12.3
- PASI score (refractory psoriasis [2]; patient 2/MR, visit v11): 14.0
- PASI score (refractory psoriasis [2]; patient 3/MZ, visit v1 (start of treatment)): 29.8
- PASI score (refractory psoriasis [2]; patient 3/MZ, visit v4): 18.4
- PASI score (refractory psoriasis [2]; patient 3/MZ, visit v7): 11.6
- PASI score (refractory psoriasis [2]; patient 3/MZ, visit v9): 9.7
- PASI score (refractory psoriasis [2]; patient 3/MZ, visit v10): 7.1
- PASI score (refractory psoriasis [2]; patient 3/MZ, visit v11): 6.5
- PASI score (refractory psoriasis [2]; patient 4/PH, visit v1 (start of treatment)): 27.0
- PASI score (refractory psoriasis [2]; patient 4/PH, visit v4): 18.6
- PASI score (refractory psoriasis [2]; patient 4/PH, visit v7): 13.5
- PASI score (refractory psoriasis [2]; patient 4/PH, visit v9): 10.8
- PASI score (refractory psoriasis [2]; patient 4/PH, visit v10): 12.0
- PASI score (refractory psoriasis [2]; patient 4/PH, visit v11): 5.2
- PASI score (refractory psoriasis [2]; patient 5/PZ, visit v1 (start of treatment)): 29.1
- PASI score (refractory psoriasis [2]; patient 5/PZ, visit v4): 16.9
- PASI score (refractory psoriasis [2]; patient 5/PZ, visit v7): 9.9
- PASI score (refractory psoriasis [2]; patient 5/PZ, visit v9): 9.3
- PASI score (refractory psoriasis [2]; patient 5/PZ, visit v10): 7.8
- PASI score (refractory psoriasis [2]; patient 5/PZ, visit v11): 3.4
- PASI score (refractory psoriasis [2]; patient 6/FJ, visit v1 (start of treatment)): 44.1
- PASI score (refractory psoriasis [2]; patient 6/FJ, visit v4): 24.8
- PASI score (refractory psoriasis [2]; patient 6/FJ, visit v7): 20.3
- PASI score (refractory psoriasis [2]; patient 6/FJ, visit v9): 15.6
- PASI score (refractory psoriasis [2]; patient 6/FJ, visit v10): 15.6
- PASI score (refractory psoriasis [2]; patient 6/FJ, visit v11): 15.3
- PASI score (refractory psoriasis [2]; patient 7/DJ, visit v1 (start of treatment)): 26.6
- PASI score (refractory psoriasis [2]; patient 7/DJ, visit v4): 23.6
- PASI score (refractory psoriasis [2]; patient 7/DJ, visit v7): 23.0
- PASI score (refractory psoriasis [2]; patient 7/DJ, visit v9): 21.8
- PASI score (refractory psoriasis [2]; patient 7/DJ, visit v10): 28.5
- PASI score (refractory psoriasis [2]; patient 7/DJ, visit v11): 29.7
- mean PASI score at the end of the third treatment cycle (refractory psoriasis [2]; seven patients, end of third treatment cycle): 11.4
- response to the treatment (refractory psoriasis [2]; seven patients, one patient absolutely resistant): Most of the patients did respond to the treatment
- leukocyte count in the patient with leukopenia [3]: approximately 3×10E9 cells per liter
- leukopenia incidence [3]: only one was diagnosed with mild, reversible leukopenia
- serious adverse events [3]: no serious adverse events were reported
- toxicity grade according to World Health Organisation criteria [3]: grade I
- vomiting, nausea, or diarrhoea [3]: No cases of vomiting, nausea, or diarrhoea were recorded
- pH of the resulting solution ([4]; 500 mg vial dissolved in 25 ml sterile water for injection): ~1.6
- pH ([4]; 4 reconstituted vials diluted with 100 ml Ringer-Lactate BP, total 200 ml): 2.14
- pH ([4]; 4 reconstituted vials diluted with 100 ml Sodium lactate UP (0.16 M), total 200 ml): 3.80
- pH ([4]; 4 reconstituted vials diluted with 300 ml Ringer-Lactate BP, total 400 ml): 2.85
- pH ([4]; 4 reconstituted vials diluted with 300 ml Sodium lactate UP (0.16 M), total 400 ml): 4.47
- pH ([4]; 4 reconstituted vials diluted with 400 ml Ringer-Lactate BP, total 500 ml): 3.19
- pH ([4]; 4 reconstituted vials diluted with 500 ml Ringer-Lactate BP, total 600 ml): 3.45
- pH ([4]; 4 reconstituted vials diluted with 500 ml Sodium lactate UP (0.16 M), total 600 ml): 4.66

Compound: CC(CN1CC(=O)NC(=O)C1)N1CC(=O)NC(=O)C1 (racemic) [razoxane, 1,2-bis(3,5-dioxopiperazin-1-yl)-propane]
- efficacy in psoriasis (psoriasis [5]; [9]): relatively good efficacy
- tolerability in psoriasis patients (psoriasis [5]; [9]): good tolerability
- most frequently seen side effect (psoriasis [5]; Horton and Wells, British Journal of Dermatology (1983) 109, 669-673): neutropenia

Compound: CC(CN1CC(=O)NC(=O)C1)N1CC(=O)NC(=O)C1 (stereo not drawn) [dexrazoxane, d-isomer of 1,2-bis(3,5-dioxopiperazin-1-yl)-propane]
- itch (psoriasis [1]; [10]): diminished several hours after the first administration
- regression of the skin lesions (psoriasis [1]; [10]): 25-30%
- serious side effects [3]: No serious side effects have been reported
- duration of relief from refractory psoriasis (refractory psoriasis [6]; some patients (summary statement)): up to at least one year
- long term freedom from lesions and symptoms (refractory psoriasis [6]; three patients with refractory psoriasis, after one year): one patient is still relatively free of lesions and symptoms after one year
